Test [1] deals with Human Constitutive (Hu C-20S) β5 Active Subunit (Homo sapiens, UniProt P28074). Briefly: IC50 determination, human constitutive 20S proteasome β5c (suc-LLVY-AMC hydrolysis). The format is biochemical. The note with it: Table 2; several values in a cell are repeat determinations; read-out: Hu c-20S IC50.
The next test deals with Mtb20SOG (Mycobacterium tuberculosis, UniProt P9WHT9). Briefly: biochemical.
[2] abbreviates: Table 2, several values in a cell are repeat determinations.

Values joined by “and” are separate entries in the source; they are usually repeats but may differ in a detail not shown here. Equal entries are not always repeated. Where two headings read alike, the source gives them in different places.

Sequence of Mtb20SOG (P9WHT9 58-291): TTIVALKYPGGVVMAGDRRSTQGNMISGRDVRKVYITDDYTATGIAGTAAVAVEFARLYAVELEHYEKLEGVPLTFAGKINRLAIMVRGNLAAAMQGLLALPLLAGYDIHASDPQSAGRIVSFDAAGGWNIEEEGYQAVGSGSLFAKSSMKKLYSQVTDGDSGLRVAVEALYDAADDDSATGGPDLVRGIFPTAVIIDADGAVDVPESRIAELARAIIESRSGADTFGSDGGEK

As to `CC(C)CCC(=O)N[C@@H](CC(=O)N1CCCC[C@@H]1C(F)(F)F)C(=O)N[C@@H](C)c1nc(-c2ccc(F)cc2F)c[nH]1` [CF-503212], the values for the IC50 (in test [1]; against Mtb20SOG) were 4870 nM and 346 nM, respectively.
`CC[C@H]1CCCCN1C(=O)C[C@H](NC(=O)CCC(C)C)C(=O)N[C@@H](C)c1ncc(-c2ccc(F)cc2F)[nH]1` [CF-503213]: the IC50 (in general, the concentration at which inhibition is half-maximal) in test [1] is 4490 nM and 4430 nM; against Mtb20SOG (setting [2]), 33 nM and 29 nM.
Turning to `CC(C)CCC(=O)N[C@@H](CC(=O)N1CCCCCC1)C(=O)N[C@@H](C)c1nc(-c2ccc(F)cc2F)c[nH]1` [CF-503214], the IC50 turned out to be 10200 nM in test [1] and 667 nM against Mtb20SOG.
Turning to `CC[C@H]1CCCCN1C(=O)C[C@H](NC(=O)CCC(C)C)C(=O)N[C@@H](C)c1nc2ccccc2[nH]1` [CF-503216], the half-inhibitory concentration (IC50) in test [1] is 14800 nM and 14500 nM; at Mtb20SOG, 296 nM and 333 nM.
For `CC(C)CCC(=O)N[C@@H](CC(=O)N1CCCCC1C(C)C)C(=O)N[C@@H](C)c1ncc(-c2ccc(F)cc2F)[nH]1` (stereo partly shown) [CF-503218], the half-inhibitory concentration (IC50) is 3180 nM in test [1]; 136 nM and 168 nM at Mtb20SOG (setting [2]).
Take `CC[C@H]1CCCCN1C(=O)C[C@H](NC(=O)CCC(C)C)C(=O)N[C@@H](C)c1nc2cc(F)cc(F)c2[nH]1` [CF-503219]: the IC50 in test [1] was 4060 nM and 4500 nM; on Mtb20SOG, 793 nM and 840 nM.
Consider `CC[C@H]1CCCCN1C(=O)C[C@H](NC(=O)CCC(C)(C)C)C(=O)N[C@@H](C)c1nc2c(F)cccc2[nH]1` [CF-503222], for which the IC50 was 11200 nM and 12300 nM and 11700 nM in test [1]; 15 nM and 29 nM and 41 nM against Mtb20SOG (setting [2]).
With `CC[C@H]1CCCCN1C(=O)C[C@H](NC(=O)CCC(C)C)C(=O)N[C@@H](C)c1nc2c(F)cccc2[nH]1` [CF-503223], the IC50 was 10600 nM and 10200 nM in test [1]; 28 nM and 33 nM at Mtb20SOG.
Consider `CC(C)CCC(=O)N[C@@H](CC(=O)N1CCCC[C@@H]1C)C(=O)N[C@@H](C)c1nc2c(F)cccc2[nH]1` [CF-503225], for which the IC50 in test [1] was 16200 nM and 16900 nM; against Mtb20SOG (setting [2]), 97 nM and 118 nM.
Take `C[C@H](NC(=O)[C@H](CC(=O)N1CCCC[C@@H]1C)NC(=O)CCC(C)(C)C)c1nc2c(F)cccc2[nH]1` [CF-503227]: the IC50 in test [1] is 4830 nM and 6490 nM; on Mtb20SOG (setting [2]), 79 nM and 81 nM.
Turning to `CC[C@H]1CCCCN1C(=O)C[C@H](NC(=O)CCC(C)C)C(=O)N[C@@H](C)c1nc2cc(F)c(F)cc2[nH]1` [CF-503229], the IC50 in test [1] was determined as 5000 nM; at Mtb20SOG, 6000 nM.
Turning to `CC[C@H]1CCCCN1C(=O)C[C@H](NS(=O)(=O)CCC(C)C)C(=O)N[C@@H](C)c1nc2c(F)cccc2[nH]1` [CF-503230], the IC50 in test [1] was 17800 nM and 8600 nM; on Mtb20SOG (setting [2]), 400 nM and 520 nM.
As to `C[C@H](NC(=O)[C@@H](N)CC(=O)N1CCC[C@@H]1c1ccccc1)c1ncc(-c2ccccc2F)[nH]1` [CF-503240], the half-inhibitory concentration (IC50) in test [1] came to 94000 nM; against Mtb20SOG (setting [2]), 8500 nM.
`C[C@H](NC(=O)[C@H](CC(=O)N1CCC[C@@H]1c1ccccc1)Nc1nc2ccccc2o1)c1ncc(-c2ccccc2F)[nH]1` [CF-503242]: the half-inhibitory concentration (IC50) in test [1] is 16800 nM and 20600 nM; against Mtb20SOG (setting [2]) it was 753 nM and 677 nM.
`Cc1cc(C(=O)N[C@@H](CC(=O)N2CCCC[C@@H]2C)C(=O)N[C@@H](C)c2nc3c(F)cccc3[nH]2)no1` [CF-503274]: the IC50 in test [1] was 7090 nM; against Mtb20SOG it was 69 nM.
In the case of `CC[C@H]1CCCCN1C(=O)C[C@H](NC(=O)CCc1ccccc1)C(=O)N[C@@H](C)c1nc2c(F)cccc2[nH]1` [CF-503291], the IC50 in test [1] was 2640 nM and 3390 nM; against Mtb20SOG, 7 nM and 6 nM.
Take `CC[C@H]1CCCCN1C(=O)C[C@H](NC(=O)NCc1ccccc1)C(=O)N[C@@H](C)c1nc2c(F)cccc2[nH]1` [CF-503304]: the concentration for half-maximal inhibition (IC50) in test [1] is 9360 nM and 9400 nM; on Mtb20SOG, 359 nM and 327 nM.
Take `CC[C@H]1CCCCN1C(=O)C[C@H](NC(=O)CC1CC1)C(=O)N[C@@H](C)c1nc2c(F)cccc2[nH]1` [CF-503318]: the half-inhibitory concentration (IC50) in test [1] was 16900 nM; at Mtb20SOG it was 112 nM.
Turning to `CC[C@H]1CCCCN1C(=O)C[C@H](NC(=O)CC(F)(F)F)C(=O)N[C@@H](C)c1nc2c(F)cccc2[nH]1` [CF-503319], the values for the IC50 (in test [1]; against Mtb20SOG) were 4200 nM and 320 nM, respectively.
Take `CC[C@H]1CCCCN1C(=O)C[C@H](Nc1nc2ccccc2o1)C(=O)N[C@@H](C)c1nc2c(F)cccc2[nH]1` [CF-503321]: the IC50 in test [1] was 4500 nM and 5200 nM; against Mtb20SOG (setting [2]), 271 nM and 374 nM.
As for `CC[C@H]1CCCCN1C(=O)C[C@H](NC(=O)CCN(C)C)C(=O)N[C@@H](C)c1nc2c(F)cccc2[nH]1` [CF-503356], the IC50 (in test [1]; at Mtb20SOG) was 6400 nM throughout.
Regarding `CC[C@H]1CCCCN1C(=O)C[C@H](Nc1nc2cc(C)ccc2o1)C(=O)N[C@@H](C)c1nc2c(F)cccc2[nH]1` [CF-503357], the IC50 in test [1] amounted to 1900 nM; on Mtb20SOG, 260 nM.
As for `CC[C@H]1CCCCN1C(=O)C[C@H](Nc1nc2ccc(C)cc2o1)C(=O)N[C@@H](C)c1nc2c(F)cccc2[nH]1` [CF-503360], the IC50 in test [1] is 1120 nM and 1430 nM and 1420 nM and 1440 nM; against Mtb20SOG (setting [2]) it was 125 nM and 190 nM and 353 nM and 361 nM.
As for `CC(NC(=O)C(CC(=O)N1CCCCC1C)NC(=O)C1CC1c1ccccc1)c1nc2c(F)cccc2[nH]1` (stereo not shown) [CF-503363], the half-maximal inhibitory concentration (IC50) is 8000 nM in test [1] and 50.7 nM against Mtb20SOG.
Regarding `CC(C)C1CC1C(=O)N[C@@H](CC(=O)N1CCCC[C@@H]1C)C(=O)N[C@@H](C)c1nc2c(F)cccc2[nH]1` (stereo partly shown) [CF-503381], the IC50 was 2470 nM in test [1]; 41 nM and 36 nM against Mtb20SOG (setting [2]).
For `CC[C@H]1CCCCN1C(=O)C[C@H](NC(=O)[C@@H]1C[C@H]1c1ccccc1)C(=O)N[C@@H](C)c1nc2c(F)cccc2[nH]1` [CF-503382], the values for the 50% inhibitory concentration (IC50) (in test [1]; against Mtb20SOG (setting [2])) were 12000 nM and 166 nM, respectively.
Regarding `CC[C@H]1CCCCN1C(=O)C[C@H](Nc1nc(C(C)C)no1)C(=O)NCc1nc2c(F)cccc2[nH]1` [CF-503417], the IC50 in test [1] was 3600 nM and 2990 nM; on Mtb20SOG (setting [2]), 1350 nM and 1770 nM.
On to `CC[C@H]1CCCCN1C(=O)C[C@H](Nc1nc(Cc2ccc(F)cc2)no1)C(=O)N[C@@H](C)c1nc2c(F)cccc2[nH]1` [CF-503419], for which the concentration for half-maximal inhibition (IC50) in test [1] is 1360 nM and 1200 nM; against Mtb20SOG it was 257 nM and 319 nM.
Take `CC[C@H]1CCCCN1C(=O)C[C@H](Nc1nc2ccccc2s1)C(=O)N[C@@H](C)c1nc2c(F)cccc2[nH]1` [CF-503445]: the figures for the concentration for half-maximal inhibition (IC50) (in test [1]; at Mtb20SOG (setting [2])) were 1190 nM and 1180 nM, respectively.
Turning to `CC[C@H]1CCCCN1C(=O)C[C@H](NC(=O)N(C)Cc1ccccc1)C(=O)N[C@@H](C)c1nc2c(F)cccc2[nH]1` [CF-503451], the IC50 in test [1] was 3330 nM and 3700 nM; at Mtb20SOG, 176 nM and 184 nM.
As to `CC[C@H]1CCCCN1C(=O)C[C@H](NC(=O)N1CCOCC1)C(=O)N[C@@H](C)c1nc2c(F)cccc2[nH]1` [CF-503453], the concentration for half-maximal inhibition (IC50) stood at 4450 nM in test [1] and 4690 nM against Mtb20SOG (setting [2]).
Turning to `CC[C@H]1CCCCN1C(=O)C[C@H](NC(=O)N1CCCCC1)C(=O)N[C@@H](C)c1nc2c(F)cccc2[nH]1` [CF-503454], the figures for the half-maximal inhibitory concentration (IC50) (in test [1]; on Mtb20SOG (setting [2])) were 3000 nM and 765 nM, respectively.
Taken in the same sequence, the figures for `CC[C@H]1CCCCN1C(=O)C[C@H](NC(=O)N(C)CC(C)C)C(=O)N[C@@H](C)c1nc2c(F)cccc2[nH]1` [CF-503457] were 5030 nM and 2360 nM.
On to `CC(NC(=O)C(CC(=O)N1CCCCC1C)NC(=O)N(C)Cc1ccccc1)c1nc2c(F)cccc2[nH]1` (stereo not shown) [CF-503460], for which the figures for the concentration for half-maximal inhibition (IC50) (in test [1]; on Mtb20SOG) were 17200 nM and 272 nM, respectively.
With `CC[C@H]1CCCCN1C(=O)C[C@H](NC(=O)OCc1ccccc1)C(=O)N[C@@H](C)c1nc2c(F)cccc2[nH]1` [CF-503461], the IC50 in test [1] is 5800 nM and 8200 nM; against Mtb20SOG (setting [2]), 68 nM and 75 nM.

Source of the values: patent US11203613B2, “Peptidomimetic proteasome inhibitors” (CORNELL UNIVERSITY, priority 2017, dated 2021).
